In one assay the target is T1, human SCD1 (Homo sapiens, UniProt O00767).
T1 construct: expressed in transfected cells; host or cells: yeast strain with OLE1 deleted, plasmid-borne human SCD1 (selected in SD-Ura)
T1 sequence (O00767 1-359): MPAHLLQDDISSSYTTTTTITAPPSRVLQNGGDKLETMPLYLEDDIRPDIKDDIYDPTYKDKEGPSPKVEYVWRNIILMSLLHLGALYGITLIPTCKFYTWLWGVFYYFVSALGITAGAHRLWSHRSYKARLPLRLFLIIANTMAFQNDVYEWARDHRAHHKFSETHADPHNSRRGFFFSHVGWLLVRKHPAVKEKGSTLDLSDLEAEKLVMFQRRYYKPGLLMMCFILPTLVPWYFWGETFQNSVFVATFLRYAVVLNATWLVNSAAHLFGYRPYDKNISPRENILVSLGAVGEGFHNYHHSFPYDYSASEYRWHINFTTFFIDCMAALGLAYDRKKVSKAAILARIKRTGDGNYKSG
Description: Growth inhibition of yeast strain expressing human SCD1 as sole desaturase (OLE1 deleted), OD600 readout. It is filed as cell-based.

A further assay deals with T2, human SCD5 (Homo sapiens, UniProt Q86SK9).
T2 construct: expressed in transfected cells; host or cells: yeast strain with OLE1 deleted, plasmid-borne human SCD5 (selected in SD-Ura)
T2 sequence (Q86SK9 1-330): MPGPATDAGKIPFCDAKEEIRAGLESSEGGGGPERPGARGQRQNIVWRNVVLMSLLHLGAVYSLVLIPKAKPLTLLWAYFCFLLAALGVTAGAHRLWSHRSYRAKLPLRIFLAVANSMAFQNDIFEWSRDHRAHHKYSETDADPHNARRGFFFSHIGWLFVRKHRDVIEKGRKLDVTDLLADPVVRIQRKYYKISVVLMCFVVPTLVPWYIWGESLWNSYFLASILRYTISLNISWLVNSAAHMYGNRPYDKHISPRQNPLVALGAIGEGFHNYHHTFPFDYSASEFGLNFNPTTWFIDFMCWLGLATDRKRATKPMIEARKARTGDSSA
Description: Growth inhibition of yeast strain expressing human SCD5 as sole desaturase (OLE1 deleted), OD600 readout. In kind it is cell-based.

Where [1] appears, read: yeast strain expressing human SCD1 as sole desaturase, growth (OD600) after 40 h at 30° C., read-out: SCD1 IC50.
[2] abbreviates: yeast strain expressing human SCD5 as sole desaturase, growth (OD600) after 40 h at 30° C., read-out: SCD5 IC50.

Read-outs that look alike come from different tables or passages of the source.

IC50 data for 38 compounds are collected here from patent US20230078764A1 (Yumanity Therapeutics, Inc., priority 2019, published 2023).

By IC50 is commonly meant the concentration needed to halve the response being measured. For `N#Cc1cnc(C(=O)Nc2ccc(Cc3cccc(F)c3)cn2)c(F)c1` [Compound 636], the IC50 is more than 45 µM on human SCD1 (setting [1]) and 0.142 µM at human SCD5 (setting [2]).
For `Cc1cc(C(=O)Nc2ccc(Cc3cc(F)cc(F)c3)cn2)cnc1Cl` [Compound 619], in that order: 28 µM and 0.15 µM.
For `C=CCCc1ccc(NC(=O)C2=NN(C)C(=O)CC2)nc1` [Compound 444], in that order: more than 45 µM and more than 45 µM.
For `Cn1nc(C(=O)Nc2ccc(Nc3cccc(F)c3)cn2)ccc1=O` [Compound 300], the IC50 on human SCD1 (setting [1]) was more than 45 µM; at human SCD5 (setting [2]), 5.6 µM.
For `CN1N=C(C(=O)Nc2ccc(CC3CC3)cn2)CCC1=O` [Compound 468], in that order: more than 45 µM and more than 45 µM.
Consider `O=C(Nc1ccc(Cc2cc(F)cc(Cl)c2)cn1)c1ccc(=O)n(C2CC2)n1` [Compound 74, N-(5-(3-chloro-5-fluorobenzyl)pyridin-2-yl)-1-cyclopropyl-6-oxo-1,6-dihydropyridazine-3-carboxamide], for which the IC50 came to 0.25 µM at human SCD1 (setting [1]) and 0.01 µM at human SCD5 (setting [2]).
As to `Cn1cc(C(=O)Nc2ccc(Cc3ccc(F)c(C#N)c3)cn2)ccc1=O` [Compound 550], the results for the IC50 on human SCD1 (setting [1]) and at human SCD5 (setting [2]) were 2.4 µM and 0.37 µM, respectively.
On to `Cn1cc(C(=O)Nc2ccc(Cc3ccc4c(c3)COC4)cn2)ccc1=O` [Compound 62, N-(5-((1,3-dihydroisobenzofuran-5-yl)methyl)pyridin-2-yl)-1-methyl-6-oxo-1,6-dihydropyridine-3-carboxamide], for which the concentration for half-maximal inhibition (IC50) is 2.34 µM against human SCD1 (SCD1 IC50) and 2.06 µM at human SCD5 (SCD5 IC50).
Regarding `Cn1cc(C(=O)Nc2nnc(Cc3cccc(F)c3)s2)ccc1=O` [Compound 461], the IC50 at human SCD1 (setting [1]) and at human SCD5 (setting [2]) was more than 45 µM each time.
Regarding `Cn1cc(NC(=O)c2ccc(Cc3cccc(Cl)c3)nn2)ccc1=O` [Compound 189, 6-(3-chlorobenzyl)-N-(1-methyl-6-oxo-1,6-dihydropyridin-3-yl)pyridazine-3-carboxamide], the figures for the IC50 on human SCD1 (setting [1]) and at human SCD5 (setting [2]) were more than 45 µM and 5.07 µM, respectively.
The corresponding values for `CN1N=C(C(=O)Nc2ccc(Cc3cccc(C4CC4)c3)cn2)CCC1=O` [Example 23, N-(5-(3-cyclopropylbenzyl)pyridin-2-yl)-1-methyl-6-oxo-1,4,5,6-tetrahydropyridazine-3-carboxamide] are more than 45 µM and 2.49 µM.
For `CN1N=C(C(=O)Nc2ncc(Cc3ccccc3Cl)s2)CCC1=O` [Compound 230, N-(5-(2-chlorobenzyl)thiazol-2-yl)-1-methyl-6-oxo-1,4,5,6-tetrahydropyridazine-3-carboxamide], in that order: 2.88 µM and 3.8 µM.
The corresponding values for `Cn1cc(NC(=O)c2ccc(COc3cccc(Cl)c3)cn2)ccc1=O` [Compound 487] are 4.6 µM and 0.31 µM.
`CN1N=C(C(=O)Nc2ccc(CC3CCCCC3)nn2)CCC1=O` [Compound 198, N-(6-(cyclohexylmethyl)pyridazin-3-yl)-1-methyl-6-oxo-1,4,5,6-tetrahydropyridazine-3-carboxamide]: the figures for the IC50 on human SCD1 (setting [1]) and at human SCD5 (setting [2]) were more than 45 µM and 7.18 µM, respectively.
Regarding `CCn1nc(C(=O)Nc2ccc(Cc3cccc(F)c3)cn2)ccc1=O` [Compound 68, 1-ethyl-N-(5-(3-fluorobenzyl)pyridin-2-yl)-6-oxo-1,6-dihydropyridazine-3-carboxamide], the IC50 on human SCD1 (setting [1]) came out at 1.65 µM; on human SCD5 (setting [2]) it was 0.26 µM.
For `O=C(Nc1ccc(Cc2cccc(F)c2)cn1)c1ccn(C2CC2)n1` [Compound 285], in that order: 9.41 µM and 1.43 µM.
The corresponding values for `CCn1ccc(C(=O)Nc2ccc(Cc3ccc(F)c(F)c3)cn2)n1` [Compound 98, N-(5-(3,4-difluorobenzyl)pyridin-2-yl)-1-ethyl-1H-pyrazole-3-carboxamide] are 2.96 µM and 0.04 µM.
Take `CO[C@H]1C[C@@H](C(=O)Nc2ccc(Cc3cccc(F)c3)cn2)N(C)C1` [Compound 438]: the IC50 on human SCD1 (setting [1]) and at human SCD5 (setting [2]) was more than 45 µM in each case.
As to `N#Cc1ccc(C(=O)Nc2ccc(Cc3ccc(F)c(Cl)c3)cn2)nc1` [Compound 130, N-(5-(3-chloro-4-fluorobenzyl)pyridin-2-yl)-5-cyanopicolinamide], the IC50 at human SCD1 (setting [1]) is more than 45 µM; on human SCD5 (setting [2]), 0.04 µM.
On to `CN1N=C(C(=O)Nc2ccc(Cc3cc(F)cc(F)c3)cn2)CCC1=O` [Example 22, N-(5-(3,5-difluorobenzyl)pyridin-2-yl)-1-methyl-6-oxo-1,4,5,6-tetrahydropyridazine-3-carboxamide], for which the IC50 at human SCD1 (setting [1]) is more than 45 µM.
The same measure, in the same setting: for `N#Cc1ccc(C(=O)Nc2ccc(Cc3cccc(F)c3)cn2)nc1` [Compound 142, 5-cyano-N-(5-(3-fluorobenzyl)pyridin-2-yl)picolinamide] the value was more than 45 µM.
The same measure, in the same setting: to `CCn1cc(C(=O)Nc2ccc(Oc3cccc(F)c3)cn2)ccc1=O` [Compound 164, 1-ethyl-N-[5-(3-fluorophenoxy)pyridin-2-yl]-6-oxo-1,6-dihydropyridine-3-carboxamide] belongs more than 45 µM; to `Cn1nc(C(=O)Nc2cnn(Cc3cccc(Cl)c3)c2)ccc1=O` [Compound 215, N-(1-(3-chlorobenzyl)-1H-pyrazol-4-yl)-1-methyl-6-oxo-1,6-dihydropyridazine-3-carboxamide], 1.28 µM.
Consider `CN1N=C(C(=O)Nc2ccc(Cc3ccccc3)nn2)CCC1=O` [Compound 253], for which the IC50 at human SCD5 (setting [2]) stood at 4.75 µM.
As to `CN1N=C(C(=O)Nc2ccc(Cc3ccc4c(c3)COC4)cn2)CCC1=O` [Example 19, N-(5-((1,3-dihydroisobenzofuran-5-yl)methyl)pyridin-2-yl)-1-methyl-6-oxo-1,4,5,6-tetrahydropyridazine-3-carboxamide], the IC50 at human SCD1 (setting [1]) was more than 45 µM.
Still for that read-out and setting: for `COc1cccc(Cc2ccc(NC(=O)C3=NN(C)C(=O)CC3)nn2)c1` [Compound 182, N-(6-(3-methoxybenzyl)pyridazin-3-yl)-1-methyl-6-oxo-1,4,5,6-tetrahydropyridazine-3-carboxamide] the value was more than 45 µM.
Take `CN1N=C(C(=O)Nc2ccc(/C=C/c3cccc(Cl)c3)nn2)CCC1=O` [Compound 418]: the IC50 at human SCD5 (setting [2]) was more than 45 µM.
`CN1N=C(C(=O)Nc2ccc(Cc3cccc(F)c3)nn2)CCC1=O` [Compound 193, N-(6-(3-fluorobenzyl)pyridazin-3-yl)-1-methyl-6-oxo-1,4,5,6-tetrahydropyridazine-3-carboxamide]: the IC50 at human SCD1 (setting [1]) is more than 45 µM.
Still for that read-out and setting: to `N#Cc1ccc(C(=O)Nc2ccc(Cc3cccc(F)c3)cn2)nc1` [Compound 135, 5-cyano-N-(5-(3-fluorobenzyl)pyridin-2-yl)picolinamide] belongs 14.1 µM.
On the same count and under the same terms, to `Cn1cc(C(=O)Nc2ccc(Oc3cccc(F)c3)cn2)ccc1=O` [Compound 160, N-[5-(3-fluorophenoxy)pyridin-2-yl]-1-methyl-6-oxo-1,6-dihydropyridine-3-carboxamide] belongs more than 45 µM; to `CN1N=C(C(=O)Nc2ccc(Cc3cccc(C#N)c3)cn2)CCC1=O` [Compound 8, N-(5-(3-cyanobenzyl)pyridin-2-yl)-1-methyl-6-oxo-1,4,5,6-tetrahydropyridazine-3-carboxamide], more than 45 µM.
`CN1N=C(C(=O)Nc2ccc(Cc3ccccc3)cn2)CCC1=O` [Compound 13, N-(5-benzylpyridin-2-yl)-1-methyl-6-oxo-1,4,5,6-tetrahydropyridazine-3-carboxamide]: the IC50 at human SCD1 (setting [1]) was more than 45 µM.
The same measure, in the same setting: to `Cn1nc(C(=O)Nc2ccc(Oc3cccc(F)c3)cn2)ccc1=O` [Compound 162, N-[5-(3-fluorophenoxy)pyridin-2-yl]-1-methyl-6-oxo-1,6-dihydropyridazine-3-carboxamide] belongs more than 45 µM; to `Cc1nnc2ccc(C(=O)Nc3ccc(Cc4cccc(F)c4)cn3)cn12` [Compound 152, N-(5-(3-fluorobenzyl)pyridin-2-yl)-3-methyl-[1,2,4]triazolo[4,3-a]pyridine-6-carboxamide], more than 45 µM.
For `CN1N=C(c2nc3cc(Cc4cccc(Cl)c4)cnc3[nH]2)CCC1=O` [Compound 255], the IC50 at human SCD5 (setting [2]) was 4.74 µM.
In the case of `CN1N=C(C(=O)Nc2ccc(Cc3ccc(F)cc3)cn2)CCC1=O` [Example 17, N-(5-(4-fluorobenzyl)pyridin-2-yl)-1-methyl-6-oxo-1,4,5,6-tetrahydropyridazine-3-carboxamide], the IC50 on human SCD1 (setting [1]) was more than 45 µM.
Still for that read-out and setting: to `Cn1cc(C(=O)Nc2ccc(COc3cccc(Cl)c3)cn2)ccc1=O` [Compound 263] belongs more than 45 µM.
The same measure, in the same setting: for `CN1N=C(C(=O)Nc2ccc(Cc3cc(F)cc(C#N)c3)cn2)CCC1=O` [Example 26, N-(5-(3-cyano-5-fluorobenzyl)pyridin-2-yl)-1-methyl-6-oxo-1,4,5,6-tetrahydropyridazine-3-carboxamide] the value was more than 45 µM.
